In patent publication US20120020876A1, “HEDGEHOG PATHWAY INHIBITORS” (priority 2009, published 2012):
Entries after “also recorded” stand apart in the source; their conditions may differ. Each block holds one molecule with its values, some of them ahead of it.

How the values were obtained:
[1] = Gd-DTPA delivery by DCE-MRI; assay type: in vivo, mouse; conditions: 0.1 mmol/kg Gd-DTPA
Experimental: Magnetic resonance imaging experiments were carried out on a Varian MRI system (Varian, Inc, Palo Alto, Calif., USA) equipped with a 9.4T horizontal bore cryo-cooled superconducting magnet of 210 mm bore and a gradient set of strength 40 G/cm, 120 μsec risetime and internal diameter 120 mm. The imaging probe used was a Varian Millipede of 40 mm internal diameter. Mice were anaesthetized with Hypnorm/Hypnovel. Anatomical images were obtained using coronal T2-weighted fast spin-echo (repetition time TR=2000 ms, effective echo time TE=25 ms, echo train length 8 echoes, 512×512 points, field of view 80×80 mm, slice thickness/gap 1.5/0.5 mm, 12-15 slices) with chemical shift-selective fat suppression and respiratory gating. All other images were matched to the slice positions and field of view of the anatomical images. […] DCE-MRI data were analyzed in software custom-written in MATLAB 7.4 (The Mathworks, Inc, Natick, Mass., USA) using the model of Tofts and Kermode to evaluate the pharmacokinetic parameters Ktrans and ve, and additionally calculating the area under the [gadolinium]-time curve over the first 60 seconds post-injection (IAUGC60), as recommended by a panel of experts for vascular-related studies in oncology.

[2] = Vascular labeling and drug diffusion: doxorubicin delivery by confocal microscopy; assay type: in vivo, mouse; conditions: in comparison to control tissues and transplanted tumors; i.v. with lectin
Experimental: To assess the functional vasculature, biotin-conjugated Lycopersicon esculentum lectin (B1175-1 mg, Vector Laboratories) was resuspended in 425 μL PBS and mixed with 75 μL of 1 mg/mL Streptavidin-AlexaFluor 633 (S21375, Molecular Probes) (in sterile PBS). Prior to use, the lectin-avidin mixture was centrifuged 14,000 k on a microfuge for 10 minutes to remove any particulate. Fifteen minutes prior to euthanasia, 100 μl (0.4 mg total) of the conjugated lectin was administered as a slow intravenous infusion over 5 minutes, and the hemodynamics monitored closely to ensure that it was tolerated. For doxorubicin experiments, five minutes prior to euthanasia mice were also infused with a 20 mg/kg doxorubicin solution (D-1515.10 mg, in sterile saline, Sigma) over one minute.
While under terminal anesthesia, mice were perfused with 4% paraformaldehyde in PBS, pH 7.4. Perfused tissues were harvested, fixed overnight in 4% paraformaldehyde in PBS, pH 7.4 and transferred to 70% ethanol. Tissues were embedded in paraffin, sectioned, rehydrated, and counterstained with DAPI. The lectin labeling experiments were reproduced independently in a second laboratory (SRH, KI).
Mice were infused with 30 ml of 4% PFA pH 7.4 using a Harvard Apparatus PhD 2000 syringe pump at a rate of […]. […] Doxorubicin fluorescence was excited with a 488 nm laser, and emission was detected in a range from 520-620 nm. […]

[3] = Gemcitabine (dFdC) in blood of normal mice by HPLC; assay type: in vivo, mouse
KPC tumors [4] = assay: Histology (H&E) of treated KPC tumors; assay type: in vivo, mouse; conditions: KPC tumors after 8-12 days of treatment
[5] = Determination of dFdCTP in tissues by HPLC; assay type: in vivo, mouse; conditions: 50 or 100 mg/kg gemcitabine i.p., 4 h
Experimental: Tissues were rapidly dissected and snap frozen in liquid nitrogen. Specimens were maintained at −80° C. until nucleotide extraction. Specimens were ground under liquid nitrogen with a mortar and pestle. The powdered contents were suspended in 0.4N perchloric acid and sonicated in an ice bath. Solids were removed by centrifugation, the pellet was washed with perchloric acid, and the supernatants were combined. Following neutralization with KOH and removal of KClO4 by centrifugation, a portion of the supernatant was analyzed by high-pressure liquid chromatography. The amount of gemcitabine triphosphate was normalized to the ATP level determined in the same sample analysis. Samples with inadequate concentrations of ATP were excluded from analysis.

KPC tumors [6] = assay: Apoptosis in KPC tumors (Cleaved Caspase 3 immunohistochemistry); assay type: in vivo, mouse
Experimental: (§1) Tissues were fixed in 10% formalin solution for 24 hours and transferred to 70% ethanol. Tissues were paraffin embedded, sectioned and rehydrated. For CD31 IHC, sections were unmasked in 10 mM EDTA, pH 8.0 in a pressure cooker. For all other antibodies, sections were unmasked in 10 mM citric acid in a pressure cooker. Endogenous peroxidases were quenched in 3% H2O2/PBS for 20 minutes. Remaining steps were carried out with Vectastain ABC kits appropriate to the species of primary antibody (Vector Labs, Burlingame, Calif.) with the following modification: blocking serum was supplemented with Protein Blocking Agent (Immunotech/BeckmanCoulter, Fullerton, Calif.) diluted 1:50. Antigens were developed with DAB Peroxidase Substrate (Vector Labs). The following antibody dilutions were used: Phospho-Histone H3, 1:100 (#9701, Cell Signaling Technology); Cleaved Caspase 3, 1:100 (#9661, Cell Signaling Technology); CD31, 1:75 (SC-1506). Slides were counterstained with hematoxylin.

[7] = test system: pancreatic ductal adenocarcinoma; conditions: cited from earlier work
KPC pancreatic tumors = assay: Monitoring of KPC pancreatic tumor volume by 3D high resolution ultrasonography; assay type: in vivo, mouse; conditions: gemcitabine 100 mg/kg twice weekly, Compound A 40 ug/kg/day, or both
Excerpt: For survival studies, mice were enrolled following the detection of 5-10 mm diameter tumor by ultrasound. Tumors were quantified by 3D ultrasound twice weekly until endpoint. High resolution ultrasound (US) imaging of normal and diseased mouse pancreas using the Vevo 770 System with a 35 MHz RMV scanhead (Visual Sonics, Inc.). 3D images were produced using the 3D motor arm to collect serial images at 0.25 mm intervals through the thickness of the tumor. Tumors were outlined on each 2D image and reconstructed to quantify the 3D volume using the integrated Vevo 770 software package.

[8] = test system: pancreatic tumors in KPC mice; assay: Survival study of tumor-bearing KPC mice; assay type: in vivo, mouse; conditions: KPC mice enrolled with 5-10 mm tumors
Experimental: vehicles: 20 μL/g 0.85% NaCl+8 μL/g 5% HPBCD;
Compound A: 40 mg/kg Compound A+20 μL/g 0.85% NaCl;
For survival studies, mice were enrolled following the detection of 5-10 mm diameter tumor by ultrasound. Tumors were quantified by 3D ultrasound twice weekly until endpoint.

[9] = test system: transplanted pancreatic tumors; assay: Proliferation of transplanted tumors (phospho-histone H3 immunohistochemistry); assay type: in vivo, mouse; conditions: gemcitabine Q3Dx4
Experimental: (§2) 1×10^6 cells suspended in 100 μL of PBS were injected subcutaneously into the flanks of nude mice (xenografts) or into immunocompetent mice (syngeneic). For syngeneic models, recipient mice were descended from mice used to generate the KPC PDA cell lines. Orthotopic tumors with MiaPaca2 were generated as previously described (Niedergethmann et al., Br J Cancer 97, 1432 (Nov. 19, 2007)). Long (L) and short (S) axes of each tumor were measured with calipers (for subcutaneous tumors) or ultrasound (for orthotopic tumors). Tumor volume (V) was calculated: V=(L×S^2)/2. Tumor volumes were normalized relative to the volume at the start of drug treatment for subcutaneous tumors. […] Tumor images were acquired using a pediatric ultrasound machine. This machine was not equipped for 3D reconstruction, so the same formula V=(L×S^2)/2 was used to estimate the tumor volumes and changes. […] When appropriate, a fifth dose was given on the final day four hours prior to necropsy for pharmacological analyses.
(§3) Tissues were fixed in 10% formalin solution for 24 hours and transferred to 70% ethanol. Tissues were paraffin embedded, sectioned and rehydrated. For CD31 IHC, sections were unmasked in 10 mM EDTA, pH 8.0 in a pressure cooker. For all other antibodies, sections were unmasked in 10 mM citric acid in a pressure cooker. Endogenous peroxidases were quenched in 3% H2O2/PBS for 20 minutes. […]

[10] = test system: transplanted pancreatic tumors; assay: Apoptosis in transplanted tumors (cleaved caspase 3 immunohistochemistry); assay type: in vivo, mouse; conditions: gemcitabine Q3Dx4
Experimental: as §2, §3

[11] = 19F NMR of fluorinated gemcitabine metabolites in tissue; assay type: in vivo, mouse; conditions: six hours after gemcitabine dosage; pilot experiments
Experimental: Mice were treated with indicated regiments for 12 days. […] Tissues were rapidly dissected and snap frozen in liquid nitrogen. Tissue specimens were maintained at −80° C. until subjected to nucleotide extraction. Samples were homogenized in a Qiagen TissueLyser with a 5 mm ball bearing for 2×6 minutes at 25 KHz, in the presence of 4 volumes of ice-cold acetonitrile (μL acetonitrile=4×[…] of tissue). An equal volume of water was added and then the sample was spun at 14,000 rpm for 10 minutes at 4° C. Supernatant was freeze dried, resuspended in 600 μL of D2O and transferred to a 5 mm standard NMR tube (Wilmad) for ^19F NMR analysis on a Bruker 600 MHZ (14.1T) Avance NMR spectrometer using a QNP probe. Acquisition parameters included a 1D pulse sequence of ^19F observation and inverse-gated ^1H decoupling, spectral sweep width of 177 ppm (100000 Hz), 4096 scans and 1.65 sec of repetition time. Total acquisition time for each sample was about 1 hr 55 min. Trichloro-fluoro-methane was used for ^19F NMR chemical shift calibrations. A broad hump observed in the baseline of ^19F NMR spectra was removed by application of Linear-prediction (LP) back projection to the time domain data by using 2000 (number of LP) coefficients and 128 back-prediction points prior to Fourier transformation and phase correction. […]

[12] = test system: transplanted pancreatic tumors; assay: Growth of subcutaneous and orthotopic transplanted pancreatic tumors; assay type: in vivo; conditions: transplantation models of human or mouse origin; gemcitabine Q3Dx4, 12 days
Experimental: The human pancreatic cancer cell line AsPc1 was cultured according to instructions. Mouse pancreatic cancer cell lines […], […] and DT8082 were isolated from tumors arising in KPC mice using a modification of the protocol described by Schreiber et al., Gastroenterology (20004) 127:250. Briefly, a 3 mm^3 fragment of PDA was excised, washed in 10 mL of cold PBS, and then finely diced with sterile razors. Cells were incubated in 10 mL of collagenase solution at 37° C. for 30-45 minutes with mixing (1 mg/mL collagenase V in DMEM/F12). Cells were spun (100 rpm, 5 min.) and resuspended in 0.05% Trypsin/EDTA for 5 min. at 37° C., and then quenched with DMEM supplemented with 10% fetal calf serum and 96 μM CaCl2. Cells were washed 3 times with DMEM/F12 medium and plated in a 6-well Biocoat dish (Becton Dickenson) in the ductal cell medium. After 3-4 passages, cells were transferred to standard plastic tissue culture dishes and grown in DMEM+10% FCS. 1×10^6 cells suspended in 100 μL of PBS were injected subcutaneously into the flanks of nude mice (xenografts) or into immunocompetent mice (syngeneic). For syngeneic models, recipient mice were descended from mice used to generate the KPC PDA cell lines. […] Long (L) and short (S) axes of each tumor were measured with calipers (for subcutaneous tumors) or ultrasound (for orthotopic tumors). Tumor volume (V) was calculated: V=(L×S^2)/2. […]

KPC tumors [13] = assay: Proliferation of KPC tumors (phospho-histone H3 immunohistochemistry); assay type: in vivo, mouse; conditions: 4 days or 8-12 days of treatment
Experimental: as §1

SMILES: O=C([O-])CN(CCN(CC(=O)[O-])CC(=O)O)CCN(CC(=O)[O-])CC(=O)O.[Gd+3] [Gd-DTPA, gadolinium-diethyltriaminepentaacetic acid]
Gd-DTPA enhancement within KPC tumors [1]: little or no enhancement within the tumor body

doxorubicin delivery to KPC pancreatic tumors [2]: marked decrease in doxorubicin delivery
SMILES: COc1cccc2c1C(=O)c1c(O)c3c(c(O)c1C2=O)C[C@@](O)(C(=O)CO)C[C@@H]3O[C@H]1C[C@H](N)[C@H](O)[C@H](C)O1 [doxorubicin]

SMILES: Nc1ccn([C@@H]2O[C@H](CO)[C@@H](O)C2(F)F)c(=O)n1 [gemcitabine, 2′,2′-difluorodeoxycytidine]
half-life of gemcitabine in circulating blood [3]: short half-life
tumor stroma / histological pattern (KPC tumors [4]): dense stromal matrix
dFdCTP in KPC tumors [5]: absent
dFdCTP in transplanted tumor tissues and control tissues [5]: present
apoptosis in KPC tumors (KPC tumors [6]): unchanged in most KPC tumors
extension of survival ([7]; pancreatic ductal adenocarcinoma, standard-of-care therapy): a few weeks
patients with objective radiographic response at the primary tumor site ([7]; patients, Tempero et al. 2003): 5-10%
objective (ultrasonographic) response, responding mice/treated mice (KPC pancreatic tumors): 2/10
effect on survival of KPC mice [8]: Neither gemcitabine nor Compound A treatment had an effect on the survival
proliferative rate of transplanted tumors [9]: significantly lower proliferative rates
apoptosis in transplanted tumors [10]: no significant changes in apoptosis
19F signals in PDA and control tissues [11]: absent
tumor growth of transplanted tumors [12]: substantial inhibition of tumor growth
proliferation of KPC tumors (KPC tumors [13]): significantly diminished; also recorded: decreased
